Active and inactive are the calls of the source. Rule as the data show it, for most assays here: actives have a measured EC50 and inactives only a lower limit.
Target: Luciferin 4-monooxygenase (Photinus pyralis, UniProt P08659)
Sequence (P08659 whole entry): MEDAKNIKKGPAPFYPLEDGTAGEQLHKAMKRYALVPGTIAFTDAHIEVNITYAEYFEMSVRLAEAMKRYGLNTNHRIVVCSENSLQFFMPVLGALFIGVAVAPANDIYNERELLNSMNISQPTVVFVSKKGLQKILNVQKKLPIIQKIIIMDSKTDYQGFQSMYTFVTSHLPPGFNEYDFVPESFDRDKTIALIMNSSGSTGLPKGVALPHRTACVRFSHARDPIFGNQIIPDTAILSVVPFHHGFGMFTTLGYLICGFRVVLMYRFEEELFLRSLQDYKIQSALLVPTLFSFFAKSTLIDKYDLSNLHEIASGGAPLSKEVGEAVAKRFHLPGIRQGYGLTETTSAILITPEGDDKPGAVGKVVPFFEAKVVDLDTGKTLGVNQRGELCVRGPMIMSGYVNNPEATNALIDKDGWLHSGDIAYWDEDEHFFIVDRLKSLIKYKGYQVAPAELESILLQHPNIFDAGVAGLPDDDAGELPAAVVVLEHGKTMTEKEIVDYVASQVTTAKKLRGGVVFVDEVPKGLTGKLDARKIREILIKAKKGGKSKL
Experiment: firefly luciferase enzyme inhibitors, dose response, biochemical, luminescence (AID 1891)
In the case of `N#CC(c1ccc(Cl)cc1)N1CCOCC1` (configuration not stated), the EC50 is reported as > 112 µM (not active). With `O=C(Nc1nnc(-c2cccnc2)s1)c1cccs1` the EC50 was 22.6 µM (active). In the case of `COc1ccc(C(C)NC(=O)c2ccccc2Cl)cc1OC` (configuration not stated), the EC50 is reported as > 112 µM (not active). With `O=C(c1ccc(S(=O)(=O)Nc2ccccc2)cc1)N1CCCCCCC1` the EC50 was > 112 µM (not active). With `COc1ccc(-c2nc(CSCC(=O)N3CCN(c4cccc(C)c4)C(C)C3)c(C)o2)cc1OC` (configuration not stated) the EC50 was > 112 µM (not active). With `Cc1ccc(-c2c3c(nc4sc(C(N)=O)c(N)c24)CCC3)cc1` the EC50 was > 112 µM (not active). For `NC(=O)CSc1cn(Cc2cccc(F)c2)c2ccccc12`, the EC50 was > 112 µM (not active). With `Cc1ccc(C(=O)Nc2ccc(C)c(S(=O)(=O)N3CCOCC3)c2)c(C)c1` the EC50 was > 112 µM (not active). In the case of `C/C(=N/OC(=O)c1ccc(C)cc1)c1cccs1`, the EC50 is reported as 1.22 µM (active). In the case of `Brc1ccc(-c2nc(N/N=C/c3cccnc3)c3ccccc3n2)cc1`, the EC50 is reported as 0.248 µM (active).

Test system: not listed separately
Experiment: Luminescence Cell-Based Dose Confirmation HTS to Identify Inhibitors of Platelet Dense Granule Release. [Related pubchem assays: 1663 (Primary HTS), 1678 (Summary of Project)]
Type: functional
For `N#CC(c1ccc(Cl)cc1)N1CCOCC1` (configuration not stated), the EC50 was > 112 µM (not active). For `O=C(Nc1nnc(-c2cccnc2)s1)c1cccs1`, the EC50 was > 112 µM (not active). With `COc1ccc(C(C)NC(=O)c2ccccc2Cl)cc1OC` (configuration not stated) the EC50 was > 112 µM (not active). In the case of `O=C(COC(=O)c1[nH]nc2ccccc12)Nc1cccc(S(=O)(=O)N2CCOCC2)c1`, the EC50 is reported as > 112 µM (not active). For `O=C(c1ccc(S(=O)(=O)Nc2ccccc2)cc1)N1CCCCCCC1`, the EC50 was > 112 µM (not active). With `COc1ccc(-c2nc(CSCC(=O)N3CCN(c4cccc(C)c4)C(C)C3)c(C)o2)cc1OC` (configuration not stated) the EC50 was > 112 µM (not active). For `Cc1ccc(-c2c3c(nc4sc(C(N)=O)c(N)c24)CCC3)cc1`, the EC50 was > 112 µM (not active). For `NC(=O)CSc1cn(Cc2cccc(F)c2)c2ccccc12`, the EC50 was > 112 µM (not active). For `Cc1ccc(C(=O)Nc2ccc(C)c(S(=O)(=O)N3CCOCC3)c2)c(C)c1`, the EC50 was > 112 µM (not active). For `C/C(=N/OC(=O)c1ccc(C)cc1)c1cccs1`, the EC50 was 5.14 µM (active). With `Brc1ccc(-c2nc(N/N=C/c3cccnc3)c3ccccc3n2)cc1` the EC50 was 0.407 µM (active).

Target: Cytochrome P450 2D6 (Homo sapiens, UniProt P10635);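 also: CYP2D6 member of a cytochrome P450 panel assay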
Sequence (P10635 whole entry): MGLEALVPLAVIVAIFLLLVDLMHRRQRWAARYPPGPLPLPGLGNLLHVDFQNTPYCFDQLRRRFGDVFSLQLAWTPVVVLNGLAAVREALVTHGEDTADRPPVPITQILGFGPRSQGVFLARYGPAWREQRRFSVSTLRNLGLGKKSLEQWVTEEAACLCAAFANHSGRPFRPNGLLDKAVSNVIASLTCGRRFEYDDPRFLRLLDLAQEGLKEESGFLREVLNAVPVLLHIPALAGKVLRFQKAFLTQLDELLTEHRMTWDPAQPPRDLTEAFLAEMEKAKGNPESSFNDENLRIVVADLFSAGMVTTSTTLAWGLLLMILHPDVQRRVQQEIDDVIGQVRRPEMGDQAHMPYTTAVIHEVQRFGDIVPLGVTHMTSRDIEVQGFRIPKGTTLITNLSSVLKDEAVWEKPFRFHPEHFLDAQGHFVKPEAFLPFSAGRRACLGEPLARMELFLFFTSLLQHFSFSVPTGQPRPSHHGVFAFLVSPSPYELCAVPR
For `Cc1ccc(-c2c3c(nc4sc(C(N)=O)c(N)c24)CCC3)cc1`, the AC50 was 22.4 µM (inconclusive).
